Source: patent publication US20240100075A1, “Synthetic Compositions Comprising LNFP III and LSTa” (FrieslandCampina Nederland B.V., priority 2020, published 2024)

Legend:
Type in all cases: cell-based, human
FoxP3 = test: Intracellular staining of transcription factors in PBMCs (FACS), FoxP3; settings: PBMC, single HMOs and total pool of HMO; method not given
Description: For intracellular staining PBMCs from 3 donors were incubated with the mentioned HMOs (0.5 g/1) for 24 h prior to analysis. In a 96-wells plate 5*10^5 PBMCs were pelleted at 300 g for 4 minutes. Subsequently, the cells were blocked using 25 μL of blocking buffer (Human BD Fc Block™,BD) and incubated for 10 minutes at room temperature. Then, 25 μL of anti-CD4 FITC (555346, BD) and anti-CD3 APC (555335, BD) were added to each test. The cells were incubated 30 minutes on ice. After the cells were washed twice with Stain Buffer (FBS) (554657, BD) an intracellular staining for the transcription factors was performed by the Transcription Factor Buffer Set (562574, BD). FoxP3 PE (560852, BD) and RORγT PE (563081, BD) were used. Cells were analyzed with FACS (Easycyte 8HT). Expression of FoxP3 and RORγT was analyzed in the CD4-positive cells.
PBMC's from 3 donors were isolated from a buffy coat using Sepmate tubes. The cells were diluted to a concentration of 1*10^7 cells per ml. The PBMC's were seeded in 6 wells plates and treated with 0.5 g/l of 2′-FL or a mix of LNFP-III with LSTa 1:1 w/v in PBMC culturing medium for 24 h. Cells incubated with no HMOs were used as control. For Fluorescence Activated Cell Sorting (FACS), 5*10^5 PBMCs were pelleted at 300 g for 4 minutes in a 96-well plate.
Subsequently, the cells were blocked using 25 μL of blocking buffer (Human BD Fc Block™,BD) and incubated for 10 minutes at room temperature. Then, 25 μL of anti-CD4 FITC (555346, BD) and anti-CD3 APC (555335, BD) were added to each test. The cells were incubated 30 minutes on ice. After the cells were washed twice with Stain Buffer (FBS) (554657, BD) an intracellular staining for the transcription factors was performed by the Transcription Factor Buffer Set (562574, BD). FoxP3 PE (560852, BD) and RORγT PE (563081, BD) were used. Cells were analyzed with FACS (Easycyte 8HT).

Interleukin-10 (IL-10) = test: Cytokine analysis (Cytometric Bead Array) in PBMC supernatant, IL-10; settings: for effect on the expression of IL10 (summary statement): PBMC, single HMOs and total pool of HMO, method not given
Description: BD™ Cytometric Bead Array (CBA) Human Th1/Th2/Th17 Cytokine Kit (560484, BD) was used to measure Interleukin-6 (IL-6) and Interleukin-10 (IL-10) protein levels in supernatant following the manufacturer's instructions. After acquiring samples on the FACS (Easycyte 8HT), the FCAP Array™ software was used to determine cytokine concentrations.
PBMC's from 3 donors were isolated from a buffy coat using Sepmate tubes. The cells were diluted to a concentration of 1*10^7 cells per ml. The PBMC's were seeded in 6 wells plates and treated with 0.5 g/l of 2′-FL or a mix of LNFP-III with LSTa 1:1 w/v in PBMC culturing medium for 24 h. Cells incubated with no HMOs were used as control. The supernatants from these cultures were collected and BD™ Cytometric Bead Array (CBA) Human Th1/Th2/Th17 Cytokine Kit (560484, BD) was used to measure Interleukin-6 (IL-6) and Interleukin-10 (IL-10) protein levels in supernatant following the manufacturer's instructions. After acquiring samples on the FACS (Easycyte 8HT), the FCAP Array™ software was used to determine cytokine concentrations.

Interleukin-6 (IL-6) = test: Cytokine analysis (Cytometric Bead Array) in PBMC supernatant, IL-6; settings: PBMCs of 3 donors, 0.5 g/l, 24 h, FIG. 8, compared with control
Description: BDTM Cytometric Bead Array (CBA) Human Th1/Th2/Th17 Cytokine Kit (560484, BD) was used to measure Interleukin-6 (IL-6) and Interleukin-10 (IL-10) protein levels in supernatant following the manufacturer's instructions. After acquiring samples on the FACS (Easycyte 8HT), the FCAP ArrayTM software was used to determine cytokine concentrations. PBMC's from 3 donors were isolated from a buffy coat using Sepmate tubes. The cells were diluted to a concentration of 1*10^7 cells per ml. The PBMC's were seeded in 6 wells plates and treated with 0.5 g/l of 2'-FL or a mix of […] in PBMC culturing medium for 24 h. Cells incubated with no HMOs were used as control. The supernatants from these cultures were collected and BDTM Cytometric Bead Array (CBA) Human Th1/Th2/Th17 Cytokine Kit (560484, BD) was used to measure Interleukin-6 (IL-6) and Interleukin-10 (IL-10) protein levels in supernatant following the manufacturer's instructions. After acquiring samples on the FACS (Easycyte 8HT), the FCAP ArrayTM software was used to determine cytokine concentrations.

IL23A = test: RNA sequencing in PBMCs, IL23A gene expression; settings: PBMCs of 3 donors, 0.5 g/l HMO, 6 h, Polymyxin B as control, FIG. 4
Description: (§1) Peripheral blood mononuclear cells (PBMCs) were isolated from a buffy coat using Sepmate tubes. The cells were diluted to a concentration of 1*10^7 cells per ml. The PBMC's were seeded in 6 wells plates and treated with 0.5 g/l of each HMO in PBMC culturing medium for 6 h prior to RNA isolation. Each human milk oligosaccharide (HMO) was mixed with 100 ug/ml (microgram/milliliter) final concentration of Polymyxin B to ensure neutralization of possible endotoxin contamination of HMOs, while equal amounts of Polymyxin B were used as a control. As a positive control HMOs isolated from pooled human milk sample were used. Single HMOs were purchased from BOC Sciences.
(§2) 2500 ng RNA, isolated from PBMCs of 3 donors, was translated into cDNA, using the quantitect reverse transcription kit (Qiagen). RNA sequencing and analysis was performed by use of the NOVOGENE platform according to standard procedures. Gene expression is shown for CSF3, CD25 (IL2RA), IL12B and IL23A as regulated by the pool of HMOs as isolated from human milk (pHMOs), LNFP-III, LSTa and DSLNT.
(§3) PBMC's from 3 donors were isolated from a buffy coat using Sepmate tubes. The cells were diluted to a concentration of 1*10^7 cells per ml. […]
(§4) 2500 ng RNA, isolated from PBMCs, was translated into cDNA, using the quantitect reverse transcription kit (Qiagen). […]

CD25 (IL2RA) = test: RNA sequencing in PBMCs, CD25 (IL2RA) gene expression; settings: PBMCs of 3 donors, 0.5 g/l HMO, 6 h, Polymyxin B as control, FIG. 2
Description: as §1, §2
(§5) PBMC's from 3 donors were isolated from a buffy coat using Sepmate tubes. The cells were diluted to a concentration of 1*10^7 cells per ml. The PBMC's were seeded in 6 wells plates and treated with 0.5 g/l of each HMO in PBMC culturing medium for 6 h prior to RNA isolation. Each HMO was mixed with 100 ug/ml final concentration of Polymyxin B to ensure neutralization of possible endotoxin contamination of HMOs, while equal amounts of Polymyxin B were used as a control. As a positive control HMOs isolated from pooled human milk sample were used. Single HMOs were purchased from BOC Sciences.
(§6) 2500 ng RNA, isolated from PBMCs, was translated into cDNA, using the quantitect reverse transcription kit (Qiagen). RNA sequencing and analysis was performed by use of the NOVOGENE platform according to standard procedures. Gene expression was shown for CSF3, CD25 (IL2RA), IL12B and IL23A as regulated by the pool of HMOs as isolated from human milk (pHMOs), LNFP-III, LSTa and DSLNT.

IL12B = test: RNA sequencing in PBMCs, IL12B gene expression; settings: PBMCs of 3 donors, 0.5 g/l HMO, 6 h, Polymyxin B as control, FIG. 3
Description: as §1, §2, §5, §6

CSF3 = test: RNA sequencing in PBMCs, CSF3 gene expression; settings: PBMCs of 3 donors, 0.5 g/l HMO, 6 h, Polymyxin B as control, FIG. 1
Description: as §1, §2, §3, §4

Row | Compound | effect on the expression of FoxP3 (summary statement) (FoxP3) | effect on the expression of IL10 (summary statement) (Interleukin-10 (IL-10)) | expression of IL10 (protein level in supernatant) (Interleukin-10 (IL-10); PBMCs of 3 donors, 0.5 g/l, 24 h, FIG. 7, mixture value is average) | expression of IL6, result in words (Interleukin-6 (IL-6)) | expression of IL23A (IL23A) | expression of CD25 (CD25 (IL2RA)) | expression of IL12B (IL12B) | relative expression of CSF3 (CSF3)
1 | 2′-fucosyllactose [2′FL, reference compound] | no effect | no effect | less than 3 pg/ml | no expression |  |  |  | 
2 | β-D-Gal-(1→4)-[α-L-Fuc-(1→3)]-β-D-GlcNAc-(1→3)-β-D-Gal-(1→4)-D-Glc [LNFP III] | increase | increase |  |  | about 4.3 | around 5.8 | about 2.5 | 
3 | CC(=O)N[C@H]1[C@H](O[C@H]2[C@@H](O)[C@@H](CO)O[C@@H](O[C@H]3[C@H](O)[C@@H](O)C(O)O[C@@H]3CO)[C@@H]2O)O[C@H](CO)[C@@H](O)[C@@H]1O[C@@H]1O[C@H](CO)[C@H](O)[C@H](O[C@]2(C(=O)O)C[C@H](O)[C@@H](NC(C)=O)[C@H]([C@H](O)[C@H](O)CO)O2)[C@H]1O (stereo partly drawn) [LSTa, α-Neu5Ac-(2→3)-β-D-Gal-(1→3)-β-D-GlcNAc-(1→3)-β-D-Gal-(1→4)-Glc] | increase | increase |  |  | about 4.4 | around 6.3 | about 3 | 
4 | α-Neu5Ac-(2→3)-β-D-Gal-(1→3)-[α-Neu5Ac-(2→6)]-β-D-GlcNAc-(1→3)-β-D-Gal-(1→4)-Glc [DSLNT] |  |  |  |  |  | around 5.5 | about 2.5 | around 4
